Here are results for two compounds from US20150366845A1, “PHARMACEUTICAL COMPOSITION FOR DISEASES CAUSED BY PATHOGENIC MICROORGANISMS SUCH AS ASPERGILLUS” (POLA PHARMA INC., priority 2013, published 2015).

For one test, the system named is Trichomonas vaginalis. In words: Growth inhibition of clinically isolated Trichomonas vaginalis in Trichomonas medium F (Neutral Red colour, inverted microscope). It is filed as cell-based. Conditions: for Color / Result of microscopic observation: 72 hours at 37° C.; for Result of microscopic observation: inverted microscope. Here is the method: The effect on Trichomonas vaginalis was investigated for luliconazole of the compound represented by the general formula (1). That is, 5×10^6 cells of clinically isolated Trichomonas vaginalis were seeded in Trichomonas medium F (6.5 mL, contained in tube) produced by Fujiyakuhin Co., Ltd. containing Neutral Red as a marker, and the preculture was carried out for 72 hours (preculture). It was confirmed that Trichomonas grew, the acid was actively produced, and Neutral Red was changed to be yellow. After that, the preculture was added to Trichomonas medium F by every 100 μL in order to carry out the main culture, to which 0.5 mL of a test solution was added. In this situation, the number of protozoas in the solution of preculture was 1.5×10^5 cells/mL. Three series of test solutions were prepared, in which the luliconazole concentrations were 200 μM (final concentration: 35.2 μM), 100 μM (final concentration: 17.6 μM), and 50 μM (final concentration: 8.8 μM), as luliconazole dissolved in 10% methanol saline solution. 0.5 mL of vehicle was added as a control. As for the vehicle, 10% methanol saline solution (final concentration: 0 μM) was used. Stirring was sufficiently performed after the addition, followed by culturing at 37° C. for 72 hours. After the completion of the cultivation, the color was discriminated, and the state of protozoas was observed by using an inverted microscope. […] The same or equivalent investigation as that of Example 1 was performed while changing luliconazole to lanoconazole.

The subject of test [1] is Chlamydia trachomatis (D/UW3/Cx). In words: Anti-intracellular parasite action, Chlamydia inclusion bodies in HeLa 229 host cells (fluorescence staining). It is filed as cell-based. On the procedure:
The anti-intracellular parasite action was investigated by using Chlamydia trachomatis (D/UW3/Cx). That is, Chlamydia trachomatis was cultured in the presence of ×2 dilution series of 8 to 64 μg/ml of luliconazole by using HeLa 229 cells as the host. MEM added with 8% thermally inactivated FBS, to which 1 μg/ml of cyclohexamide was added, was used as the medium, and the culture was performed for 72 hours in 5% carbon dioxide gas at 37° C. After the culture, inclusion bodies were subjected to the fluorescent staining to be apple green with Chlamydia FA reagent “Seiken” (produced by DENKA SEIKEN Co., Ltd.), and the observation was performed by using a fluorescence microscope.

Setting [2] is: final concentration 8.8 μM, Neutral Red marker.
[3] abbreviates: final concentration 17.6 μM, Neutral Red marker.
Where [4] appears, read: final concentration 35.2 μM, Neutral Red marker (yellow = acid production by growing Trichomonas).

Turning to `N#C/C(=C1/SCC(c2ccccc2Cl)S1)n1ccnc1` (stereo not shown) [lanoconazole, 4-(2-chlorophenyl)-1,3-dithiolane-2-ylidene-1-imidazolyl acetonitrile], the Color entry with Trichomonas vaginalis (setting [2]) is reported as “yellow”; with Trichomonas vaginalis (setting [3]) it was “red”; with Trichomonas vaginalis (setting [4]) it was “red”. Moreover, the “Result of microscopic observation” value with Trichomonas vaginalis (final concentration 8.8 μM) is given as “large number of protozoas were observed”; with Trichomonas vaginalis (final concentration 17.6 μM), “protozoas were observed slightly”; in the test on Trichomonas vaginalis (final concentration 35.2 μM), “no protozoa was observed”.
For the compound `N#C/C(=C1/SC[C@@H](c2ccc(Cl)cc2Cl)S1)n1ccnc1` [luliconazole, (R)-(−)-(E)-[4-(2,4-dichlorophenyl)-1,3-dithiolane-2-ylidene]-1-imidazolyl acetonitrile], in the test on Trichomonas vaginalis (at 8.8 μM), the “growth of Trichomonas” value is “inhibits the growth”. Moreover, the results for the Color entry in the test on Trichomonas vaginalis (setting [2]), in the test on Trichomonas vaginalis (setting [3]) and in the test on Trichomonas vaginalis (setting [4]) were “yellow”, “red” and “red”, respectively. The “Result of microscopic observation” value with Trichomonas vaginalis (final concentration 8.8 μM) was “protozoas were observed slightly”; in the test with Trichomonas vaginalis (final concentration 17.6 μM) it was “no protozoa was observed”; in the test with Trichomonas vaginalis (final concentration 35.2 μM) it was “no protozoa was observed”. Further, the “observation result of Chlamydia inclusion bodies” value is “dot-shaped Chlamydia inclusion bodies stained apple green were observed” in test [1] (treatment with 8 μg/mL, FIG. 1 panel (A)); “dot-shaped Chlamydia inclusion bodies stained apple green were observed” in test [1] (treatment with 16 μg/mL, FIG. 1 panel (B)); “No inclusion body was found” in test [1] (treatment with 32 μg/mL, FIG. 1 panel (C)).
